The text below walks through data of PubChem BioAssay (NCI).

What all share (experiment): growth of human tumour cells (NCI), 48 h
The subject of assay [1] is BT-549 breast.
The subject of assay [2] is CAKI-1 renal.
Assay [3] deals with COLO 205 colon.
The test system of assay [4] is HOP-62 NSCLC.
For assay [5], the system named is KM12 colon.
Assay [6] has as its system MCF7 breast.
Assay [7] has as its system MOLT-4 leukemia.
In assay [8] the test system is SK-OV-3 ovarian.
In assay [9] the test system is T-47D breast.
Assay [10] has as its system UO-31 renal.

Values joined by “and” are separate entries in the source; they are usually repeats but may differ in a detail not shown here. Equal values may be shown once.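 These data come from cells grown in 96-well plates and exposed to compound for 48 hours at five concentrations. Abbreviation: GI50, concentration required for 50% inhibition of growth. TGI: concentration producing complete growth inhibition.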

Take `Cn1ncc2c(Nc3ccc(Br)cc3)nc(Nc3ccc(Br)cc3)nc21`: the GI50 in assay [1] is 4.68 µM; in [2], 1.87 µM; in assay [3] it was 1.65 µM; in assay [4] it was 4.22 µM; in assay [5], 1.76 µM; in assay [6], 2.61 µM. Besides, the GI50 in assay [7] was 0.346 µM; in assay [8], 10.9 µM; in assay [9], 2.7 µM; in assay [10] it was 3.28 µM. For the same molecule, the TGI in assay [1] amounted to 19.4 µM; in assay [2], 4.49 µM; in [3] it was 3.2 µM; in [4] it was 15.4 µM; in assay [5], 3.48 µM; in assay [6], 10.9 µM. Further, the TGI amounted to 5.23 µM in [7], 23.5 µM in assay [8], 14.6 µM in assay [9] and 29 µM in assay [10].

Take `COc1cc(OC)c(-c2cc(=O)c3c(OC)c(OC)c(OC)c(OC)c3o2)cc1OC`: the TGI in [1], in assay [2], in assay [3], in assay [4], in assay [5] and in assay [6] was above 100 µM each time. Further, the TGI in assay [7], in assay [8], in assay [9] and in assay [10] was above 100 µM in each case.

`COc1ccccc1-c1cc2c3c(nc4ccccc42)C(=O)c2cccnc2-c3n1`: the GI50 in assay [1] is 13.3 µM; in assay [2], 13 µM; in assay [3] it was 20.9 µM; in assay [4], 14.4 µM; in assay [5] it was 9.88 µM; in assay [6], 1.44 µM. The GI50 in assay [7] was above 42.6 µM; in assay [8], 20.8 µM; in assay [9] it was 9.08 µM; in assay [10] it was 11.1 µM. The TGI in [1] was 18.1 µM; in assay [2], 27.2 µM; in assay [3], 55.1 µM; in assay [4], 48.2 µM; in assay [5], 33.2 µM; in [6], 3.95 µM. Moreover, the TGI is above 100 µM in [7], 51.2 µM in assay [8], above 94.6 µM in assay [9] and 23.3 µM in assay [10].

`CCN(CC)c1ccc(NC(C(=O)c2ccccc2)c2ccccc2)cc1` (centres undefined): the GI50 is 2.85 µM in assay [1]; 3.36 µM in [2]; 3.41 µM in assay [3]; 4.31 µM in assay [4]; 4.03 µM in assay [5]; 2.23 µM in [6]. The GI50 in assay [7] was 0.696 µM; in [8], 18.6 µM; in assay [9] it was 3.35 µM; in assay [10], 1.9 µM. Besides, the TGI in assay [1] stood at 9.59 µM; in [2], 11.6 µM; in assay [3], 11.9 µM; in assay [4] it was 16.5 µM; in [5], 15.7 µM; in [6], 16.6 µM. The TGI in assay [7] stood at 24.4 µM; in assay [8], 78.3 µM; in assay [9], 29 µM; in [10], 4.18 µM.

Consider `C[C@@H]1O[C@@H](O[C@H]2C[C@@H](O)[C@]3(CO)C4C(CC[C@]3(O)C2)[C@@]2(O)CC[C@H](C3=CC(=O)OC3)[C@@]2(C)C[C@H]4O)[C@H](O)[C@H](O)[C@H]1O` (some centres undefined), for which the GI50 in assay [1] was 0.0186 µM; in assay [2] it was 0.0166 µM; in [3], 0.0747 µM; in [4], 0.0137 µM; in [5], 0.0512 µM; in assay [6] it was 0.0244 µM. For the same molecule, the GI50 was 0.0128 µM in assay [7], 0.0203 µM in [8], 0.0215 µM in [9] and 0.0165 µM in [10]. Also, the TGI in [1] turned out to be 0.0624 µM; in [2], 0.0679 µM; in assay [3] it was 0.151 µM; in [4] it was 0.0385 µM; in assay [5], 0.132 µM; in assay [6] it was 0.121 µM. In addition, the TGI amounted to 0.0314 µM in assay [7], 0.0731 µM in assay [8], 0.0847 µM in assay [9] and 0.0618 µM in assay [10].

On to `COC1/C=C/O[C@@]2(C)Oc3c(C)c(O)c4c(O)c(cc(O)c4c3C2=O)NC(=O)/C(C)=C\C=C\[C@H](C)C(O)[C@@H](C)[C@@H](O)[C@@H](C)[C@H](OC(C)=O)[C@@H]1C` (some centres undefined), for which the GI50 in assay [1] is 29 µM; in assay [2] it was 16.9 µM; in assay [3] it was 4.25 µM; in assay [4] it was 18.8 µM; in [5] it was 19 µM; in assay [6] it was 17.3 µM. The GI50 in assay [7] was 7.42 µM; in assay [9], 8.63 µM; in assay [10] it was 12 µM. Moreover, the TGI was 37.7 µM and 84.4 µM in assay [1]; 30.8 µM and 98.6 µM in [2]; 15.5 µM and 10.6 µM in assay [3]; 32.8 µM and 237 µM in [4]; 35.4 µM and 97.2 µM in assay [5]; 32.3 µM and 29.7 µM in assay [6]. Also, the TGI in assay [7] was 36.3 µM and 62.5 µM; in assay [8], 211 µM; in assay [9], 23.2 µM and 48.5 µM; in assay [10], 24.4 µM and 96.9 µM.

Regarding `O=C1Nc2ccc(F)c3c(OCCO)cc(-c4ccc[nH]4)c1c23`, the GI50 was 3.21 µM in assay [1]; 0.393 µM in [2]; 1.33 µM in assay [3]; 3.07 µM in assay [4]; 0.274 µM in assay [5]; 0.81 µM in assay [6]. Moreover, the GI50 is 1.21 µM in [7], 1.47 µM in assay [8], 0.513 µM in assay [9] and 0.632 µM in assay [10]. The TGI came to 11.6 µM in [1]; 3.33 µM in assay [2]; 5.79 µM in assay [3]; 13.8 µM in [4]; 2.37 µM in assay [5]; 10.9 µM in assay [6]. The TGI in assay [7] is 10.3 µM; in assay [8], 25 µM; in assay [9], 1.52 µM; in assay [10], 4.05 µM.

`O=C1Nc2ccc(Cl)cc2/C1=C\c1c(-c2ccc(F)cc2)nc2ccccn12`: the GI50 in [1] is 2.46 µM; in assay [2], 2.25 µM; in assay [3], 4.03 µM; in assay [4] it was 2.35 µM; in assay [5], 2.04 µM; in assay [6], 2.71 µM. Further, the GI50 in assay [7] was 2.89 µM; in assay [8], 2.18 µM; in assay [9], 4.35 µM; in assay [10] it was 2.1 µM. Besides, the TGI was 6.72 µM in assay [1]; 6.45 µM in assay [2]; 13.6 µM in [3]; 6.32 µM in assay [4]; 4.61 µM in [5]; 10.7 µM in assay [6]. The TGI in [7] was determined as 8.13 µM; in assay [8] it was 5.06 µM; in [9], 19.6 µM; in [10] it was 5.61 µM.
